Measurements: ChEMBL document CHEMBL2177046, “New aminoimidazoles as β-secretase (BACE-1) inhibitors showing amyloid-β (Aβ) lowering in brain” (J Med Chem, 2012)

Tests used:
[1] = Dissociation constant, pKa of the compound by pressure-assisted capillary electrophoretic method; assay type: physicochemical
[2] = physchem
[3] = in vitro; conditions: human, Caco-2
[4] = Plasma concentration in C57BL/6 mouse at 30 umol/kg, iv at […]; assay type: ADME, organism-based
[5] = test system: Plasma; assay: Free plasma concentration in C57BL/6 mouse at 30 umol/kg, iv at […]; assay type: ADME, organism-based; conditions: in vivo
[6] = Drug uptake in C57BL/6 mouse brain at 30 umol/kg, iv at […]; assay type: ADME, organism-based; conditions: read-out: Drug uptake
[7] = Ratio of free drug concentration in brain to free drug concentration in plasma in C57BL/6 mouse at 30 umol/kg, iv at […]; assay type: ADME, organism-based; conditions: brain and plasma, read-out: K(p,uu,brain)
[8] = test system: Brain; assay: Free drug concentration in C57BL/6 mouse brain at 30 umol/kg, iv at […]; assay type: ADME, organism-based; conditions: in vivo
[9] = test system: Plasma; assay: Free plasma concentration in C57BL/6 mouse at 100 umol/kg, po at […]; assay type: ADME, organism-based; conditions: in vivo
[10] = Ratio of free drug concentration in brain to free drug concentration in plasma in guinea pig; assay type: ADME, Cavia porcellus; conditions: brain and plasma, read-out: K(p,uu,brain)
[11] = Ratio of free drug concentration in brain to free drug concentration in plasma in C57BL/6 mouse at 100 umol/kg, po at […]; assay type: ADME, organism-based; conditions: brain and plasma, read-out: K(p,uu,brain)
[12] = Plasma concentration in C57BL/6 mouse at 100 umol/kg, po at […]; assay type: ADME, organism-based
[13] = test system: Brain; assay: Free drug concentration in C57BL/6 mouse brain at 100 umol/kg, po at […]; assay type: ADME, organism-based; conditions: in vivo
[14] = Drug uptake in C57BL/6 mouse brain at 100 umol/kg, po at […]; assay type: ADME, organism-based; conditions: read-out: Drug uptake
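Throughout, for logD: lipophilicity determined by reversed-phase HPLC.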

Structure (SMILES)	pKa [1]	logD [2]	Papp A→B at 10 µM [3]	also measured
CC#Cc1cncc(-c2cc(C3(C4CC4)N=C(C)C(N)=N3)ccc2O)c1 (configuration not stated)	5.9	1.2	2 ×10⁻⁶ cm/s	
CC1(c2cccc(-c3cccnc3)c2)N=C(N)C(c2ccccc2)=N1 (configuration not stated)	5.4	2.1	46 ×10⁻⁶ cm/s	
CC(C)C1=NC(C)(c2cccc(-c3cccnc3)c2)N=C1N (configuration not stated)	5.9	1.1	38 ×10⁻⁶ cm/s	
CC(C)C1=NC(c2ccccc2)(c2cccc(-c3cncnc3)c2)N=C1N (configuration not stated)	5.2	2.4	30 ×10⁻⁶ cm/s	
COc1ccc(C2(c3cccc(-c4cncnc4)c3)N=C(N)C(C(C)C)=N2)cc1 (configuration not stated)	5.3	2.4	30 ×10⁻⁶ cm/s	
CC1=NC(c2ccccc2)(c2cccc(-c3cccnc3)c2)N=C1N (configuration not stated)		1.8		
CC1=NC(c2ccc(F)cc2)(c2cccc(-c3cccnc3)c2)N=C1N (configuration not stated)	4.9	2	41 ×10⁻⁶ cm/s	
COc1c(C)cc(C2(c3cccc(-c4cncnc4)c3)N=C(C)C(N)=N2)cc1C (configuration not stated)	5.3	1.9	28 ×10⁻⁶ cm/s	
COc1c(C)cc([C@]2(c3cccc(-c4cncnc4)c3)N=C(C)C(N)=N2)cc1C		1.8	21 ×10⁻⁶ cm/s	
COc1c(C)cc([C@@]2(c3cccc(-c4cncnc4)c3)N=C(C)C(N)=N2)cc1C	5.2	1.8	22 ×10⁻⁶ cm/s	Cp(f) [9]: 490 nM; Kp uu [10]: 0.16; Kp uu at […] [11]: 0.05; concentration at […] [12]: 4500 nM; Drug uptake(free) [13]: 19 nmol/L; concentration at […] [14]: 230 nM
CC#Cc1cncc(-c2cccc(C3(c4cc(C)c(OC)c(C)c4)N=C(C)C(N)=N3)c2)c1 (configuration not stated)		3.7	12 ×10⁻⁶ cm/s	
CC1=N[C@@](Cc2ccccc2)(c2cccc(-c3cncnc3)c2)N=C1N	6	1.2	31 ×10⁻⁶ cm/s	

More lines, main results first:

pKa [1]	logD [2]	Papp A→B at 10 µM [3]	Structure (SMILES)	also measured
	2.9	19 ×10⁻⁶ cm/s	CC#Cc1ccnc(-c2cc(C3(C4CC4)N=C(C)C(N)=N3)ccc2O)c1 (configuration not stated)	
6.5	2.2	34 ×10⁻⁶ cm/s	COc1cccc(-c2cccc(C3(C)N=C(C)C(N)=N3)c2)c1 (configuration not stated)	
6.7	0.2	30 ×10⁻⁶ cm/s	CC1=NC(C)(c2cccc(-c3cccnc3)c2)N=C1N (configuration not stated)	
		40 ×10⁻⁶ cm/s	COc1cccc(-c2cccc(C3(c4ccncc4)N=C(C)C(N)=N3)c2)c1 (configuration not stated)	
5.2	1.1	21 ×10⁻⁶ cm/s	COc1ccc(C2(c3cccc(-c4cncnc4)c3)N=C(C)C(N)=N2)cc1 (configuration not stated)	
5.7	1.7	28 ×10⁻⁶ cm/s	COc1ccc(C2(c3cccc(-c4cccnc4)c3)N=C(C)C(N)=N2)cc1 (configuration not stated)	concentration at […] [4]: 11500 nM; Cp(f) [5]: 720 nM; concentration at […] [6]: 710 nM; Kp uu at […] [7]: 0.08; Drug uptake(free) [8]: 54 nmol/L
	1.7	19 ×10⁻⁶ cm/s	COc1ccc(C2(c3cccc(-c4cncnc4)c3)N=C(C)C(N)=N2)cc1C (configuration not stated)	
	2	57 ×10⁻⁶ cm/s	CC1=NC(c2cccc(-c3cncc(Cl)c3)c2)(C2CC2)N=C1N (configuration not stated)	concentration at […] [4]: 1200 nM; Cp(f) [5]: 60 nM; concentration at […] [6]: 180 nM; Kp uu at […] [7]: 0.16; Drug uptake(free) [8]: 9 nmol/L
6.2	2.6	41 ×10⁻⁶ cm/s	CC1=NC(c2cccc(-c3cccnc3)c2)(C2CCCCC2)N=C1N (configuration not stated)	
6	2.5	22 ×10⁻⁶ cm/s	COc1cccc(-c2cccc(C3(C4CCOCC4)N=C(C)C(N)=N3)c2)c1 (configuration not stated)	
5.7			COc1cccc(-c2cccc(C3(C4CCN(C(C)=O)CC4)N=C(C)C(N)=N3)c2)c1 (configuration not stated)	
5.8	2.3	27 ×10⁻⁶ cm/s	CC#Cc1cncc(-c2cccc(C3(C4CC4)N=C(C)C(N)=N3)c2)c1 (configuration not stated)	concentration at […] [4]: 3700 nM; Cp(f) [5]: 310 nM; concentration at […] [6]: 980 nM; Kp uu at […] [7]: 0.07; Drug uptake(free) [8]: 21 nmol/L
